Reference: patent US8247211B2, “Glycopeptide antibiotics” (American Cyanamid Company, priority 2001, dated 2012)

What was measured:
Experiment in all cases: In vitro antibacterial evaluation: minimum inhibitory concentration (MIC), broth dilution method
Type in all cases: cell-based
[1] = system: Enterococcus sp.; settings: 18 hours at 35° C.
Protocol: (§1) The minimum inhibitory concentration (MIC), the lowest concentration of the antibiotic which inhibits growth of the test organism, is determined by the broth dilution method using Muller-Hinton II […] (Baltimore Biological Laboratories) following the recommendations of the National Committee for Clinical Laboratory Standards [Methods for dilution antimicrobial susceptibility tests for bacteria that grow aerobically, approved standard M7-A2, National Committee for Clinical Laboratory Standards, Villanova, Pa].
(§2) An inoculum level of 5×10^5 CFU/mL, and a range of antibiotic concentrations (64-0.06 μg/mL) is used. […] The test organisms include a spectrum of Gram-positive bacteria comprised of Staphylococcus sp., Streptococcus sp. and Enterococcus sp. These organisms include recent clinical isolates that are resistant to methicillin, penicillin and/or vancomycin.

[2] = system: Escherichia coli; settings: 18 hours at 35° C.
Protocol: as §1, §2

[3] = system: Staphylococcus sp.; settings: for MIC Staphylococcus aureus (ATCC 29213): strain ATCC 29213; for MIC Staphylococcus aureus (GC 1131): strain GC 1131; for MIC Staphylococcus aureus (GC 3051): strain GC 3051; for MIC Staphylococcus aureus (GC 3053): strain GC 3053; for MIC Staphylococcus aureus (GC 4541): strain GC 4541; for MIC Staphylococcus aureus (GC 4542): strain GC 4542; for MIC Staphylococcus aureus-SMITH (GC 4543): strain GC 4543; for MIC Staphylococcus aureus (GC 4544): strain GC 4544; for MIC Staphylococcus aureus (GC 4545): strain GC 4545; for MIC Staphylococcus haemolyticus (GC 4546): strain GC 4546; for MIC Coagulase Negative Staphylococcus (GC 4547): strain GC 4547; for MIC Coagulase Negative Staphylococcus (GC 4548): strain GC 4548; for MIC Coagulase Negative Staphylococcus (GC 4549): strain GC 4549; for MIC Coagulase Negative Staphylococcus (GC 4551): strain GC 4551; for MIC Coagulase Negative Staphylococcus (GC 6257): strain GC 6257
Protocol: as §1, §2

[4] = system: Streptococcus sp.; settings: 18 hours at 35° C.
Protocol: as §1, §2

[5] = Enterococcus faecalis (ATCC 29212)
[6] = Enterococcus faecalis (GC 2242)
[7] = Enterococcus faecalis (GC 2691)
[8] = Enterococcus faecalis (GC 3059)
[9] = Enterococcus faecalis (GC 4552)
[10] = Enterococcus faecalis (GC 4553)
[11] = Enterococcus faecalis (GC 4554)
[12] = Enterococcus faecalis (GC 6189)
[13] = broth dilution, inoculum 5×10^5 CFU/mL
[14] = Streptococcus agalactiae (GC 4564)
[15] = Streptococcus pneumoniae (ATCC 6301)
[16] = Streptococcus pneumoniae (GC 1894)
[17] = Streptococcus pneumoniae (GC 4565)
[18] = Streptococcus pyogenes (GC 4563)

CC(c1ccccc1)C1NC(=O)CNC(=O)C(CO)NC(=O)C(C(O)C2CNC(=N)N2C2OC(CO)C(O)C(O)C2O)NC(=O)C(C(O)C2CNC(=N)N2)NC(=O)C(Cc2ccc(OC3OC(CO)C(OC4OC5COC(c6ccc(C(=O)c7ccc(I)cc7)cc6)OC5C(O)C4O)C(O)C3O)cc2)NC1=O (centres unmarked) [Example 186]
4 µg/mL: MIC Escherichia coli (GC 4560) [2]
<0.06 µg/mL: MIC Streptococcus agalactiae (GC 4564) [4, 14] | MIC Streptococcus pneumoniae (ATCC 6301) [4, 15] | MIC Streptococcus pneumoniae (GC 1894) [4, 16] | MIC Streptococcus pneumoniae (GC 4565) [4, 17] | MIC Streptococcus agalactiae (GC 4564) [4, 13] | MIC Streptococcus pneumoniae (ATCC 6301) [4, 13] | MIC Streptococcus pneumoniae (GC 1894) [4, 13] | MIC Streptococcus pneumoniae (GC 4565) [4, 13]
2 µg/mL: MIC Enterococcus avium (GC 4558) ([1]; Enterococcus avium (GC 4558)) | MIC Enterococcus faecalis (ATCC 29212) [1, 5] | MIC Enterococcus faecalis (GC 2242) [1, 6] | MIC Enterococcus faecalis (GC 2691) [1, 7] | MIC Enterococcus faecalis (GC 3059) [1, 8] | MIC Enterococcus faecalis (GC 4552) [1, 9] | MIC Enterococcus faecalis (GC 4553) [1, 10] | MIC Enterococcus faecalis (GC 4554) [1, 11] | MIC Enterococcus faecium (GC 2243) ([1]; Enterococcus faecium (GC 2243)) | MIC Enterococcus faecium (GC 4556) ([1]; Enterococcus faecium (GC 4556)) | MIC Enterococcus faecium (GC 4557) ([1]; Enterococcus faecium (GC 4557)) | MIC Enterococcus avium (GC 4558) [1, 13] | MIC Enterococcus faecalis (ATCC 29212) [1, 13] | MIC Enterococcus faecalis (GC 2242) [1, 13] | MIC Enterococcus faecalis (GC 2691) [1, 13] | MIC Enterococcus faecalis (GC 3059) [1, 13] | MIC Enterococcus faecalis (GC 4552) [1, 13] | MIC Enterococcus faecalis (GC 4553) [1, 13] | MIC Enterococcus faecalis (GC 4554) [1, 13] | MIC Enterococcus faecium (GC 2243) [1, 13] | MIC Enterococcus faecium (GC 4556) [1, 13] | MIC Enterococcus faecium (GC 4557) [1, 13] | MIC Staphylococcus aureus (ATCC 29213) [3] | MIC Staphylococcus aureus (GC 1131) [3] | MIC Staphylococcus aureus (GC 3051) [3] | MIC Staphylococcus aureus (GC 3053) [3] | MIC Staphylococcus aureus (GC 4541) [3] | MIC Staphylococcus aureus-SMITH (GC 4543) [3] | MIC Staphylococcus aureus (GC 4544) [3] | MIC Staphylococcus aureus (GC 4545) [3] | MIC Coagulase Negative Staphylococcus (GC 4547) [3] | MIC Coagulase Negative Staphylococcus (GC 4551) [3]
64 µg/mL: MIC Escherichia coli (ATCC 25922) [2] | MIC Escherichia coli (GC 4559) [2]
1 µg/mL: MIC Enterococcus faecalis (GC 6189) [1, 12] | MIC Enterococcus faecalis (GC 6189) [1, 13] | MIC Staphylococcus aureus (GC 4542) [3] | MIC Staphylococcus haemolyticus (GC 4546) [3] | MIC Coagulase Negative Staphylococcus (GC 4548) [3] | MIC Coagulase Negative Staphylococcus (GC 4549) [3]
0.5 µg/mL: MIC Coagulase Negative Staphylococcus (GC 6257) [3]
0.25 µg/mL: MIC Streptococcus pyogenes (GC 4563) [4, 18] | MIC Streptococcus pyogenes (GC 4563) [4, 13]

CC(c1ccccc1)C1NC(=O)CNC(=O)C(CO)NC(=O)C(CC2CNC(=N)N2C2OC(CO)C(O)C(O)C2O)NC(=O)C(CC2CNC(=N)N2)NC(=O)C(Cc2ccc(OC3OC(CO)C(OC4OC5COC(c6ccc(OCc7ccccc7)cc6)OC5C(O)C4O)C(O)C3O)cc2)NC1=O (centres unmarked) [Example 191]
16 µg/mL: MIC Enterococcus faecalis (ATCC 29212) [1, 5] | MIC Enterococcus faecalis (GC 4552) [1, 9] | MIC Enterococcus faecalis (GC 4554) [1, 11] | MIC Enterococcus faecalis (ATCC 29212) [1, 13] | MIC Enterococcus faecalis (GC 4552) [1, 13] | MIC Enterococcus faecalis (GC 4554) [1, 13]
2 µg/mL: MIC Streptococcus agalactiae (GC 4564) [4, 14] | MIC Streptococcus pneumoniae (GC 4565) [4, 17] | MIC Streptococcus pyogenes (GC 4563) [4, 18] | MIC Streptococcus agalactiae (GC 4564) [4, 13] | MIC Streptococcus pneumoniae (GC 4565) [4, 13] | MIC Streptococcus pyogenes (GC 4563) [4, 13]
0.25 µg/mL: MIC Streptococcus pneumoniae (GC 1894) [4, 16] | MIC Streptococcus pneumoniae (GC 1894) [4, 13]
8 µg/mL: MIC Enterococcus faecalis (GC 2242) [1, 6] | MIC Enterococcus faecalis (GC 2691) [1, 7] | MIC Enterococcus faecalis (GC 3059) [1, 8] | MIC Enterococcus faecalis (GC 4553) [1, 10] | MIC Enterococcus faecalis (GC 6189) [1, 12] | MIC Enterococcus faecium (GC 2243) ([1]; Enterococcus faecium (GC 2243)) | MIC Enterococcus faecium (GC 4556) ([1]; Enterococcus faecium (GC 4556)) | MIC Enterococcus faecalis (GC 2242) [1, 13] | MIC Enterococcus faecalis (GC 2691) [1, 13] | MIC Enterococcus faecalis (GC 3059) [1, 13] | MIC Enterococcus faecalis (GC 4553) [1, 13] | MIC Enterococcus faecalis (GC 6189) [1, 13] | MIC Enterococcus faecium (GC 2243) [1, 13] | MIC Enterococcus faecium (GC 4556) [1, 13] | MIC Escherichia coli (GC 4560) [2] | MIC Staphylococcus aureus (GC 1131) [3] | MIC Staphylococcus aureus (GC 3051) [3] | MIC Staphylococcus aureus (GC 3053) [3] | MIC Staphylococcus aureus (GC 4544) [3] | MIC Coagulase Negative Staphylococcus (GC 4547) [3]
64 µg/mL: MIC Escherichia coli (ATCC 25922) [2] | MIC Escherichia coli (GC 4559) [2]
1 µg/mL: MIC Streptococcus pneumoniae (ATCC 6301) [4, 15] | MIC Streptococcus pneumoniae (ATCC 6301) [4, 13]
4 µg/mL: MIC Enterococcus avium (GC 4558) ([1]; Enterococcus avium (GC 4558)) | MIC Enterococcus faecium (GC 4557) ([1]; Enterococcus faecium (GC 4557)) | MIC Enterococcus avium (GC 4558) [1, 13] | MIC Enterococcus faecium (GC 4557) [1, 13] | MIC Staphylococcus aureus (ATCC 29213) [3] | MIC Staphylococcus aureus (GC 4541) [3] | MIC Staphylococcus aureus (GC 4542) [3] | MIC Staphylococcus aureus-SMITH (GC 4543) [3] | MIC Staphylococcus aureus (GC 4545) [3] | MIC Staphylococcus haemolyticus (GC 4546) [3] | MIC Coagulase Negative Staphylococcus (GC 4548) [3] | MIC Coagulase Negative Staphylococcus (GC 4549) [3] | MIC Coagulase Negative Staphylococcus (GC 4551) [3] | MIC Coagulase Negative Staphylococcus (GC 6257) [3]
